Consider 21 molecules from patent US20100204203A1, “Chemical Compounds 637: Pyridopyrimidinediones as PDE4 Inhibitors” (priority 2007, published 2010).

The structures appear in SMILES notation. Where a name gives a salt, the structure may show the parent alone.

recombinant Human Phosphodiesterase B2 (PDE4B2), sequence (Q07343 1-564 isoform Q07343-2): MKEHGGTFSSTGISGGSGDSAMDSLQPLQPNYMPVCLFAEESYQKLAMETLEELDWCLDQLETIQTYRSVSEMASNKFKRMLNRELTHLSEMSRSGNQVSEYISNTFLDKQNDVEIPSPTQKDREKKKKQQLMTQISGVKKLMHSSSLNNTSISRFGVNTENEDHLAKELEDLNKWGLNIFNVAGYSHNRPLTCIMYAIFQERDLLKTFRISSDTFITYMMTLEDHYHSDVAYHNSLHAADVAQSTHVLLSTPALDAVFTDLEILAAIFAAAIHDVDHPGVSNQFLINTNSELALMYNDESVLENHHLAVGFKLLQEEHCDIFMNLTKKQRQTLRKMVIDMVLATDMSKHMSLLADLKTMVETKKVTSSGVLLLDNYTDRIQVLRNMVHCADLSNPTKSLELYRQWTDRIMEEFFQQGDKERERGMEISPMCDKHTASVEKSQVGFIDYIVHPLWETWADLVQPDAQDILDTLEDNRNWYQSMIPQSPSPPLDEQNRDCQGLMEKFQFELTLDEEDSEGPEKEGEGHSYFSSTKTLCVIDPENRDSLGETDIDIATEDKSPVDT

The target of the experiment is recombinant Human Phosphodiesterase B2 (PDE4B2) (Homo sapiens, UniProt Q07343). The experiment is described as follows: Human Phosphodiesterase B2 Radiometric Assay (yttrium silicate SPA beads, [3H]cyclic AMP). It is filed as biochemical. Conditions: recombinant human PDE4B2, radiometric SPA assay, 8 nM [3H]cyclic AMP; read-out: PDE4B2 pIC50 (converted). The method in brief:
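Compounds were preincubated 30 min at 30 °C with 0.1 mg/mL PDE4B2 in 50 mM HEPES pH 7.5, 8.3 mM MgCl2, 1.7 mM EGTA, 0.01% Brij 35. Then 8 nM [3H]cAMP was added for 20 min, stopped with yttrium silicate SPA beads plus 18 mM ZnSO4 capturing product 5′AMP; pIC50 by curve fitting.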
For `CC(=O)N1CCN(Cc2cc(O)ccc2-c2cccc(-n3c(=O)n([C@H]4CC[C@@H](NCc5cn6cc(F)ccc6n5)CC4)c(=O)c4cc(F)cnc43)c2)CC1` [Example 328, 1-{2′-[(4-acetylpiperazin-1-yl)methyl]-4′-hydroxybiphenyl-3-yl}-6-fluoro-3-(cis-4-{[(6-fluoroimidazo[1,2-a]pyridin-2-yl)methyl]amino}cyclohexyl)pyrido [2,3-d]pyrimidine-2,4(1H,3H)-dione], the IC50 was 0.01 nM.

Consider `CC(C)N1CCN(Cc2ccc(-c3cccc(-n4c(=O)n([C@H]5CC[C@@H](NC(=O)C6(N(C)C)CC6)CC5)c(=O)c5cc(F)cnc54)c3)cc2)CC1` [Example 129, 1-(dimethylamino)-N-{cis-4-[6-fluoro-1-{4′-[(4-isopropylpiperazin-1-yl)methyl]biphenyl-3-yl}-2,4-dioxo-1,4-dihydropyrido[2,3-d]pyrimidin-3(2H)-yl]cyclohexyl}cyclopropanecarboxamide], for which the IC50 is 0.0398 nM.

Regarding `O=C(N[C@H]1CC[C@@H](n2c(=O)c3cc(F)cnc3n(-c3cccc(-c4ccc(F)cc4O)c3)c2=O)CC1)c1cn2cc(F)ccc2n1` [Example 80, 6-fluoro-N-{cis-4-[6-fluoro-1-(4′-fluoro-2′-hydroxybiphenyl-3-yl)-2,4-dioxo-1,4-dihydropyrido[2,3-d]pyrimidin-3(2H)-yl]cyclohexyl}imidazo[1,2-a]pyridine-2-carboxamide], the IC50 is 0.0794 nM.

As for `O=C(N[C@H]1CC[C@@H](n2c(=O)c3cc(F)cnc3n(-c3ccc4c(cnn4Cc4ccccc4)c3)c2=O)CC1)c1cn2ccccc2n1` [Example 35, N-{cis-4-[1-(1-benzyl-1H-indazol-5-yl)-6-fluoro-2,4-dioxo-1,4-dihydropyrido[2,3-d]pyrimidin-3(2H)-yl]cyclohexyl}imidazo[1,2-a]pyridine-2-carboxamide], the IC50 was 6.31 nM.

Take `NCc1ccc(-c2cccc(-n3c(=O)n([C@H]4CC[C@@H](NC(=O)c5cn6cc(F)ccc6n5)CC4)c(=O)c4cc(F)cnc43)c2)cc1` [Example 32, N-{cis-4-[1-[4′-(aminomethyl)biphenyl-3-yl]-6-fluoro-2,4-dioxo-1,4-dihydropyrido[2,3-d]pyrimidin-3(2H)-yl]cyclohexyl}-6-fluoroimidazo[1,2-a]pyridine-2-carboxamide Hydrochloride]: the IC50 was 0.158 nM.

Take `O=C(CN1CCNCC1)N[C@H]1CC[C@@H](n2c(=O)c3cc(F)cnc3n(-c3cccc(-c4ccccc4)c3)c2=O)CC1` [Example 106, N-[cis-4-(1-biphenyl-3-yl-6-fluoro-2,4-dioxo-1,4-dihydropyrido[2,3-d]pyrimidin-3(2H)-yl)cyclohexyl]-2-piperazin-1-ylacetamide]: the IC50 was 3.16 nM.

In the case of `O=Cc1ccc(-c2cccc(-n3c(=O)n([C@H]4CC[C@@H](NC(=O)c5cn6cc(F)ccc6n5)CC4)c(=O)c4cc(F)cnc43)c2)cc1` [Example 24, 6-fluoro-N-{cis-4-[6-fluoro-1-(4′-formylbiphenyl-3-yl)-2,4-dioxo-1,4-dihydropyrido[2,3-d]pyrimidin-3(2H)-yl]cyclohexyl}imidazo[1,2-a]pyridine-2-carboxamide.], the IC50 is 0.00794 nM.

As to `O=C(N[C@H]1CC[C@@H](n2c(=O)c3cc(F)cnc3n(-c3cccc(-c4ccccc4CN4CCOCC4)c3)c2=O)CC1)c1cn2cc(F)ccc2n1` [Example 19, 6-fluoro-N-{cis-4-[6-fluoro-1-[2′-(morpholin-4-ylmethyl)biphenyl-3-yl]-2,4-dioxo-1,4-dihydropyrido[2,3-d]pyrimidin-3(2H)-yl]cyclohexyl}imidazo[1,2-a]pyridine-2-carboxamide.], the IC50 is 0.00316 nM.

Turning to `O=c1c2cc(F)cnc2n(-c2cccc(-c3ccc(O)cc3CN3CCOCC3)c2)c(=O)n1[C@H]1CC[C@@H](NCC2CC2)CC1` [Example 249, 3-{cis-4-[(Cyclopropylmethyl)amino]cyclohexyl}-6-fluoro-1-[4′-hydroxy-2′-(morpholin-4-ylmethyl)biphenyl-3-yl]pyrido[2,3-d]pyrimidine-2,4(1H,3H)-dione], the IC50 is 6.31 nM.

Consider `NCc1cccc(-c2cccc(-n3c(=O)n([C@H]4CC[C@@H](NC(=O)c5cn6cc(F)ccc6n5)CC4)c(=O)c4cc(F)cnc43)c2)c1` [Example 31, N-{cis-4-[1-[3′-(aminomethyl)biphenyl-3-yl]-6-fluoro-2,4-dioxo-1,4-dihydropyrido[2,3-d]pyrimidin-3(2H)-yl]cyclohexyl}-6-fluoroimidazo[1,2-a]pyridine-2-carboxamide. Hydrochloride], for which the IC50 was 0.501 nM.

Regarding `O=c1c2cc(F)cnc2n(-c2cccc(-c3ccc(O)cc3CN3CCCOCC3)c2)c(=O)n1[C@H]1CC[C@@H](NCc2ncc3ccccn23)CC1` [Example 371, 6-fluoro-1-[4′-hydroxy-2′-(1,4-oxazepan-4-ylmethyl)biphenyl-3-yl]-3-{cis-4-[(imidazo[1,5-a]pyridin-3-ylmethyl)amino]cyclohexyl}pyrido[2,3-d]pyrimidine-2,4(1H,3H)-dione], the IC50 is 0.398 nM.

Turning to `CN1CCN(Cc2ccc(-c3cccc(-n4c(=O)n([C@H]5CC[C@@H](NC(=O)c6cn7cc(F)ccc7n6)CC5)c(=O)c5cc(F)cnc54)c3)cc2)CC1` [Example 269, 6-Fluoro-N-{cis-4-[6-fluoro-1-{4′-[(4-methylpiperazin-1-yl)methyl]biphenyl-3-yl}-2,4-dioxo-1,4-dihydropyrido[2,3-d]pyrimidin-3(2H)-yl]cyclohexyl}imidazo[1,2-a]pyridine-2-carboxamide], the IC50 was 0.02 nM.

Regarding `CN(C)CCOc1cc(F)ccc1-c1cccc(-n2c(=O)n([C@H]3CC[C@@H](N(CCN(C)C)C(=O)c4cn5cc(F)ccc5n4)CC3)c(=O)c3cc(F)cnc32)c1` [Example 83, N-{cis-4-[1-{2′-[2-(dimethylamino)ethoxy]-4′-fluorobiphenyl-3-yl}-6-fluoro-2,4-dioxo-1,4-dihydropyrido[2,3-d]pyrimidin-3(2H)-yl]cyclohexyl}-N-[2-(dimethylamino)ethyl]-6-fluoroimidazo[1,2-a]pyridine-2-carboxamide], the IC50 is 6.31 nM.

`Cn1cc(CN[C@H]2CC[C@@H](n3c(=O)c4cc(F)cnc4n(-c4cccc(-c5ccc(O)cc5CN5CCOCC5)c4)c3=O)CC2)c(-c2ccccc2)n1` [Example 247, 6-Fluoro-1-[4′-hydroxy-2′-(morpholin-4-ylmethyl)biphenyl-3-yl]-3-(cis-4-{[(1-methyl-3-phenyl-1H-pyrazol-4-yl)methyl]amino}cyclohexyl)pyrido[2,3-d]pyrimidine-2,4(1H,3H)-dione]: the IC50 was 0.2 nM.

`O=c1c2cc(F)cnc2n(-c2cccc(-c3ccc(O)cc3CN3CC[C@@H](O)C3)c2)c(=O)n1[C@H]1CC[C@@H](NCc2cn3cc(F)ccc3n2)CC1` [Example 326, 6-fluoro-3-(cis-4-{[(6-fluoroimidazo[1,2-a]pyridin-2-yl)methyl]amino}cyclohexyl)-1-(4′-hydroxy-2′-{[(3R)-3-hydroxypyrrolidin-1-yl]methyl}biphenyl-3-yl)pyrido[2,3-d]pyrimidine-2,4(1H,3H)-dione]: the IC50 was 0.398 nM.

With `O=C(N[C@H]1CC[C@@H](n2c(=O)c3cc(F)cnc3n(-c3cccc(-c4ccc(CC5CCNCC5)cc4)c3)c2=O)CC1)c1cn2cc(F)ccc2n1` [Example 345, 6-fluoro-N-{cis-4-[6-fluoro-2,4-dioxo-1-[4′-(piperidin-4-ylmethyl)biphenyl-3-yl]-1,4-dihydropyrido[2,3-d]pyrimidin-3(2H)-yl]cyclohexyl}imidazo[1,2-a]pyridine-2-carboxamide], the IC50 was 0.0316 nM.

`Cc1cccc(C(=O)N[C@H]2CC[C@@H](n3c(=O)c4cc(F)cnc4n(-c4cccc(-c5ccc(CN6C[C@@H](C)N[C@@H](C)C6)cc5)c4)c3=O)CC2)n1` [Example 290, N-{cis-4-[1-(4′-{[(3R,5S)-3,5-dimethylpiperazin-1-yl]methyl}biphenyl-3-yl)-6-fluoro-2,4-dioxo-1,4-dihydropyrido[2,3-d]pyrimidin-3(2H)-yl]cyclohexyl}-6-methylpyridine-2-carboxamide]: the IC50 is 0.01 nM.

As to `O=C(NC1CN2CCC1CC2)c1cccc(-n2c(=O)n([C@H]3CC[C@@H](NC(=O)c4cn5cc(F)ccc5n4)CC3)c(=O)c3cc(F)cnc32)c1` (stereo partly drawn) [Example 42, N-{cis-4-[1-{3-[(1-azabicyclo[2.2.2]oct-3-ylamino)carbonyl]phenyl}-6-fluoro-2,4-dioxo-1,4-dihydropyrido[2,3-d]pyrimidin-3 (2H)-yl]cyclohexyl}-6-fluoroimidazo[1,2-a]pyridine-2-carboxamide], the IC50 is 20 nM.

For the molecule `Cc1ccc(CN[C@H]2CC[C@@H](n3c(=O)c4cc(F)cnc4n(-c4cccc(-c5ccc(CN6CCN(C(C)C)CC6)cc5)c4)c3=O)CC2)s1` [Example 261, 6-fluoro-1-{4′-[(4-isopropylpiperazin-1-yl)methyl]biphenyl-3-yl}-3-(cis-4-{[(5-methyl-2-thienyl)methyl]amino}cyclohexyl)pyrido[2,3-d] pyrimidine-2,4(1H,3H)-dione], the IC50 is 0.631 nM.

Turning to `COC[C@H](C)N(C)Cc1cc(O)ccc1-c1cccc(-n2c(=O)n([C@H]3CC[C@@H](NCc4cn5cc(F)ccc5n4)CC3)c(=O)c3cc(F)cnc32)c1` [Example 315, 6-fluoro-3-(cis-4-{[(6-fluoroimidazo[1,2-a]pyridin-2-yl)methyl]amino}cyclohexyl)-1-(4′-hydroxy-2′-{[[(1S)-2-methoxy-1-methylethyl](methyl)amino]methyl}biphenyl-3-yl)pyrido[2,3-d]pyrimidine-2,4(1H,3H)-dione], the IC50 is 0.158 nM.

Take `CCN(CC)CC(=O)N[C@H]1CC[C@@H](n2c(=O)c3cc(F)cnc3n(-c3cccc(-c4ccc(CN5CCN(C(C)C)CC5)cc4)c3)c2=O)CC1` [Example 241, N^2,N^2-diethyl-N-{cis-4-[6-fluoro-1-{4′-[(4-isopropylpiperazin-1-yl)methyl]biphenyl-3-yl}-2,4-dioxo-1,4-dihydro-pyrido[2,3-d]pyrimidin-3(2H)-yl]cyclohexyl} glycinamide]: the IC50 was 0.0794 nM.
